Measured values as given in patent US20040106635A1, “Spiroisoquinoline compound, a method for preparing the same and an intermediate thereof” (priority 2001, published 2004).

Key:
guinea pig = assay: Evaluation of evacuation-promoting activity (fecal pellets after clonidine); assay type: in vivo; details: 15 min after clonidine 30 μg/kg i.p., minimum dose with more fecal pellets than control at one hour
Procedure: (Evaluation of Evacuation-Promoting Activity)
Male Hartley guinea pigs (Age: 4 to 5 weeks; n=6 to 10/group)
Each test drug was dissolved in distilled water. Hardly water-soluble test drugs were suspended in a 0.5% carboxymethyl cellulose solution. Dose of the test drug solution was 5 mL/kg.
Guinea pigs (2 animals/cage) were encaged and acclimatized for a few days prior to the examinations. Fifteen minutes after the administration of clonidine (30 μg/kg, i.p.), each test compound solution (5 mL/kg) was administered intraperitoneally or orally to the animals. One hour after the administration of the test compound, number of evacuated fecal pellets in each cage was measured and recorded. Effective dose of the test compound was determined as a minimum dose in which the number of evacuated fecal pellets was grater than that in control group (group of guinea pigs to which clonidine and vehicle of the test compound were administered d).

[1] = target: SK channel (specific binding of 125I-apamine to the membrane); assay: Assay of 125I-apamine-binding inhibition (competitive binding to colon membrane fraction); details: guinea pig colon membrane 10 μg/mL, 125I-apamin 10 pM, 4° C., 60 minutes; read-out: 125I-apamine-binding inhibitory activity (IC50; μM)
Procedure: (Assay of ^125I-Apamine-Binding Inhibition)
Male Hartley guinea pigs (Age: 4 weeks or more)
Each test drug was dissolved in a buffer (5 mM Tris-HCl, 5.4 mM KC1, 0.1% bovine serum albumin (BSA), pH 7.4; This buffer is hereinafter referred as buffer (3)). Hardly water-soluble test drugs were dissolved in dimethylsulfoxide followed by being diluted with buffer (3).
The experiments were carried out according to the method described by Hugues et al (Life Sciences 31, 437-443, 1982) and Catterall et al (Journal of Biochemistry 254, 11379-11387, 1979).
The colon was isolated from guinea pigs and mucosal cells were removed therefrom. The colon was homogenized together with a buffer solution (1)(40 mM Tris-HCl, 8% sucrose, pH 7.4) and the homogenate was centrifuged at 130,000 g for 60 minutes. The pellet was suspended in the buffer solution (1) and the suspension was layered on top of a discontinuous sucrose gradient composed of 33% sucrose and 40% sucrose. After centrifugation at 160,000 g for 90 minutes, the 8/33%-layer was collected and suspended in a buffer solution (2)(5 mM Tris-HCl, pH 7.4). The suspension was further centrifuged at 160,000 g for 60 minutes. The resultant pellet was suspended in buffer (3) at a final concentration of 500 μg of membrane protein per mL and used for binding assay (If necessary, this suspension was frozen and stored in a liquid nitrogen).
The membrane (10 μg/mL), ^125I-apamin (10 pM) and a test drug solution were added to the buffer (3) and the mixture was incubated at 4° C. for 60 minutes. After incubation, the mixture was filtered through cell-harvester and the radioactivity of ^125I-apamin retained by the filter was counted with a gamma-counter. The inhibitory activity (IC50) of the test drug on specific binding of ^125I-apamine to the membrane was calculated. The binding level of ^125I-apamine in the presence of large excess(100 nM) of apamine was defined as non-specific binding of ^125I-apamin.

[2] = target: acetylcholinesterase (AChE) (Homo sapiens, UniProt P22303); assay: Inhibitory activity on acetylcholinesterase (AChE), Ellman method; assay type: biochemical; details: 25° C., pH 7.4, in the presence of 1% BSA, absorbance at 412 nm
Procedure: (Inhibitory Activity on acetylcholinesterase (AChE))
Each test drug was dissolved in distilled water containing 0.1% BSA (pH 7.4). Hardly water-soluble test drugs were dissolved in dimethylsulfoxide followed by being diluted with distilled water containing 0.1% BSA (pH 7.4).
Measurements of AChE activity were carried out according to the method described by Ellman et al (Biochem Pharmacol 7, 88-95, 1961). A solution of 12 mM 5,5,-dithiobis-(2-nitrobenzoic acid) (50 μL; final concentration: 0.3 mM), a solution of AChE (2-4 U/mL; 50 μL) and a test drug solution (50 μL) were added, in this order, to 110 mM phosphate buffer (1.8 mL; final concentration: 100 mM; pH 7.4) and the mixture was incubated for a predetermined period (3 to 60 minutes) at 25° C. After incubation, a solution of 20 mM acetylthiocholin iodide (50 μL; final concentration: 0.5 mM) was added to the mixture. Immediately after stirring the mixture, absorbance at 412 nm of the reaction mixture was measured. In terms of change in the absorbance per unit time (z,900 E/min), the AChE-inhibitory activity of the test drug (IC50) was calculated. Concomitantly, the measurements of the present experiment were carried out in the presence of 1% BSA.

Chain of acetylcholinesterase (AChE) (P22303 32-614, species assumed): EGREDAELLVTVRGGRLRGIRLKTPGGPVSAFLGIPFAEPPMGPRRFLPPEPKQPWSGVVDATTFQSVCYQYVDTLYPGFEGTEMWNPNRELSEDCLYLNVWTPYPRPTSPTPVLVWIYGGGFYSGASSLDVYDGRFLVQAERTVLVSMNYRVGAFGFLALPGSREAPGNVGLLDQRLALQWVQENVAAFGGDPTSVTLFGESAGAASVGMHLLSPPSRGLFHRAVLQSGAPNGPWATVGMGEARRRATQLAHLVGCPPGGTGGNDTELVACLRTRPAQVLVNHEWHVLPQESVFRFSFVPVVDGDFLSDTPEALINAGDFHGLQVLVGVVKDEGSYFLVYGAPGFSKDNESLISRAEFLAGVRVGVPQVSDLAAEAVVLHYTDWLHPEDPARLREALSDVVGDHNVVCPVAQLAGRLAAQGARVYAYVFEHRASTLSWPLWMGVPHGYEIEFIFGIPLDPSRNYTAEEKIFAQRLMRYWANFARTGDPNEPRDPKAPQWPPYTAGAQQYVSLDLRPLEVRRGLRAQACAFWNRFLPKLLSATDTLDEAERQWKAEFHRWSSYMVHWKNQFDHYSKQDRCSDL

| SMILES | IC50 [1] | Evacuation-promoting activity in guine pig (Effective dose: mg/kg p.o.) (guinea pig) | other results |
| --- | --- | --- | --- |
| CCN1CCc2cc(OC)c(OC)cc2[C@@H]1[C@H]1C[C@H](C(=O)N2CCN(c3ncnc4c3cnn4Cc3ccncc3)CC2)CC[C@]12c1cc(OC)c(OC)cc1CCN2C(=O)CCNC (racemic) [Example 165(2), (1R*,2R*(S),4R)-2′-[3-(methylamino)propionyl]-3′,4′-dihydro-6′,7′-dimethoxy-2-(2-ethyl-1,2,3,4-tetrahydro-6,7-dimethoxy-1-isoquinolyl)-4-[4-[1-(4-pyridylmethyl)-1H-pyrazolo[3,4-d]pyrimidin-4-yl]-1-piperazinyl]carbonyl-spiro[cyclohexane-1,1′(2′H)-isoquinoline]] | 0.05 µM | – | Evacuation-promoting activity in guinea pig (Effective dose: mg/kg i.p.) (guinea pig): 0.01 mg/kg; IC50 [2]: 0.002 µM |
| CCC(=O)OCOC(=O)N(C)CCC(=O)N1CCc2cc(OC)c(OC)cc2[C@]12CC[C@@H](C(=O)N1CCN(c3ncnc4c3cnn4Cc3ccncc3)CC1)C[C@@H]2C1c2cc(OC)c(OC)cc2CCN1CC (relative stereo) [313 (1), (1R*,2R*(S*),4R*)-2′-[3-[N-(propionyloxymethyloxycarbonyl)-N-methylamino]propionyl]-3′,4′-dihydro-6′,7′-dimethoxy-2-(2-ethyl-1,2,3,4-tetrahydro-6,7-dimethoxy-1-isoquinolyl)-4-[4-[1-(4-pyridylmethyl)-1H-pyrazolo[3,4-d]pyrimidin-4-yl]-1-piperazinyl]carbonyl-spiro[cyclohexane-1,1′(2′H)-isoquinoline]] | – | 0.1 mg/kg | – |
| CCC(=O)OCOC(=O)N(C)CCC(=O)N1CCc2cc(OC)c(OC)cc2[C@]12CC[C@@H](C(=O)N1CCN(c3ncnc4c3cnn4Cc3ccncc3)CC1)C[C@@H]2C1c2cc(OC)c(OC)cc2CCN1CC (relative stereo) [313 (2), (1R*,2R*(S*),4R*)-2′-[3-[N-(propionyloxymethyloxycarbonyl)-N-methylamino]propionyl]-3′,4′-dihydro-6′,7′-dimethoxy-2-(2-ethyl-1,2,3,4-tetrahydro-6,7-dimethoxy-1-isoquinolyl)-4-[4-[1-(4-pyridylmethyl)-1H-pyrazolo[3,4-d]pyrimidin-4-yl]-1-piperazinyl]carbonyl-spiro[cyclohexane-1,1′(2′H)-isoquinoline]] | – | 0.1 mg/kg | – |
| CCN1CCc2cc(OC)c(OC)cc2C1[C@H]1C[C@H](C(=O)N2CCN(c3ncnc4c3nnn4C)CC2)CC[C@]12c1cc(OC)c(OC)cc1CCN2C(=O)CCN(C)C(=O)OCOC(=O)C(C)(C)C (relative stereo) [315 (2), (1R*,2R*(S*),4R*)-2′-[3-[N-(pivaloyloxy-methyloxycarbonyl)-N-methylamino]propionyl]-3′,4′-dihydro-6′,7′-dimethoxy-2-(2-ethyl-1,2,3,4-tetrahydro-6,7-dimethoxy-1-isoquinolyl)-4-[4-[3-methyl-3H-1,2,3-triazolo[4,5-d]pyrimidin-7-yl]-1-piperazinyl]carbonyl-spiro[cyclohexane-1,1′(2′H)-isoquinoline]] | – | 0.3 mg/kg | – |
| CCCn1ncc2c(N3CCN(C(=O)[C@@H]4CC[C@]5(c6cc(OC)c(OC)cc6CCN5C(=O)CCN(C)C(=O)c5ccccc5COC(=O)c5ccccc5)[C@@H](C5c6cc(OC)c(OC)cc6CCN5CC)C4)CC3)ncnc21 (relative stereo) [386 (2), (1R*,2R*(S*),4R*)-2′-[3-[N-(2-benzoyloxymethylbenzoyl)-N-methylamino]-propionyl]-3′,4′-dihydro-6′,7′-dimethoxy-2-(2-ethyl-1,2,3,4-tetrahydro-6,7-dimethoxy-1-isoquinolyl)-4-[4-[1-propyl-1H-pyrazolo[3,4-d]pyrimidin-4-yl]-1-piperazinyl]carbonyl-spiro[cyclohexane-1,1′(2′H)-isoquinoline]] | – | 1 mg/kg | – |
| COc1cc2c(cc1OC)C1(CCC(C(=O)N3CCN(c4ncnc5c4cnn5Cc4ccccn4)CC3)CC1)N(CCCN)CC2 (stereo not drawn) [282 (2)] | 0.02 µM | – | – |
| CNCCCCN1CCc2cc(OC)c(OC)cc2C12CCC(C(=O)N1CCN(c3ncnc4c3cnn4Cc3ccccc3Cl)CC1)CC2 (stereo not drawn) [295 (4), (1α,4β)-2′-[4-(methylamino)butyl]-3′,4′-dihydro-6′,7′-dimethoxy-4-[4-[1-(2-chlorophenylmethyl)-1H-pyrazolo[3,4-d]pyrimidin-4-yl]-1-piperazinyl]carbonyl-spiro[cyclohexane-1,1′(2′H)-isoquinoline]] | – | – | IC50 [2]: 0.02 µM |
| CCCn1ncc2c(N3CCN(C(=O)C4CCC5(c6cc(OC)c(OC)cc6CCN5C(=O)CCNC)C(C5c6cc(OC)c(OC)cc6CCN5CC)C4)CC3)ncnc21 (stereo not drawn) [Example 236(2)] | 0.06 µM | – | – |
| CCN1CCc2cc(OC)c(OC)cc2C1C1CC(C(=O)N2CCN(c3ncnc4c3nnn4C)CC2)CCC12c1cc(OC)c(OC)cc1CCN2C(=O)CCNC (stereo not drawn) [Example 241(2)] | 0.01 µM | – | Evacuation-promoting activity in guinea pig (Effective dose: mg/kg i.p.) (guinea pig): 0.03 mg/kg |
